According to patent US5081112A, “Method for treating hyperlipidemia” (Otsuka Pharmaceutical Factory Inc., priority 1986, dated 1992):

Legend:
Acute toxicity test = format: in vivo, Wistar-strain male rats; settings: in vivo; oral; rat
Text: (§1) Each of carboxamide compounds represented by the formula (1), which is the active ingredient contained in pharmaceutical composition according to the present invention, was suspended in 5%-CMC-Na aqueous solution and administered orally to Wistar-strain male rats of 7 week age (one test group consisting of 6 rats) so as to observe the acute toxicity of each of the carboxamide compounds.
(§2) Thus, LD50 value of Test compound No. 2 is considered to higher than […]. Thus, carboxamide compounds represented by the formula (1) according to the present invention can be said as quite safety compounds.

Wistar-strain male rats = test: Acute toxicity test; format: in vivo; settings: 2 g/kg oral; rat
Text: as §1, §2

With CCOP(=O)(Cc1ccc(C(=O)N(Cc2ccccc2)c2ccc(Cl)cc2)cc1)OCC [Test compound No. 2] the LD50 (Acute toxicity test) was > 2000 mg/kg and the lethal cases (Wistar-strain male rats) was “not any lathal case at all”.
